Patent US7643943B2, “Methods for monitoring drug activities in vivo” (Wyeth LLC, priority 2003, dated 2010)

Tests used:
[1] = Pharmacokinetics of CCI-779 in patients with cancer following intravenous administration; conditions: human, whole blood
Text: The pharmacokinetics of CCI-779 is being studied in patients with cancer receiving CCI-779 either alone or in combination with other chemotherapeutic agents following intravenous administration. Intravenous dosage schedules previously investigated include a cyclical schedule (daily for 5 days every two weeks) and a once-weekly regimen. […] The following examples evaluated the safety, efficacy, and pharmacokinetic/pharmacodynamic relationship to clinical response of three doses of CCI-779, when administered to patients with advanced, refractory renal cell cancer (RCC).

[2] = tested on: transcripts in patient PBMCs; assay: Spearman's rank correlation of changes in PBMC gene expression (HgU95A arrays) with cumulative AUCsum; type: in vivo, human; conditions: change in PBMC expression from baseline
Text: Consent for the pharmacogenomic portion of the clinical study was received and the project was approved by the local Institutional Review Boards at the participating clinical sites. Blood samples for pharmacogenomic characterization were drawn into cell purification tubes (CPT, Becton Dickinson) prior to therapy and following approximately 8 and 16 weeks of treatment. All blood samples were shipped overnight to the Wyeth Department of Molecular Medicine in Andover, Mass., and PBMCs were isolated from the whole blood samples (8 mL) in CPT tubes according to the manufacturer's procedure. For expression profiling analyses, total RNA was isolated from PBMC pellets using the RNeasy mini kit (Qiagen, Valencia, Calif.) and labeled probe for oligonucleotide arrays was prepared using a modification of the procedure described by Lockhart, et al., NAT. BIOTECHNOL., 14:1675-1680 (1996). […] The “average difference” values for each transcript were normalized to “frequency” values using the scaled frequency normalization method (Hill, et al, GENOME BIOL. 2:research0055.1-0055.13 (2001)) in which the average differences for 11 control cRNAs with known abundance spiked into each hybridization solution were used to generate a global calibration curve. This calibration was then used to convert average difference values for all transcripts to frequency estimates, stated in units of parts per million ranging from 1:300,000 (˜3 parts per million (ppm)) to 1:1000 (1000 ppm). PBMC gene expression data were normalized by the scaled frequency normalization method as described above. […] The filter which removes transcripts called absent in all samples is based upon the absent/present decision call made by the […] 3.2 software, which reflects the relative intensity of hybridization of the labeled probes to perfectly matched oligonucleotides versus hybridization to mismatched oligonucleotides for each transcript on the HgU95A chip. The filter that removes transcripts with a frequency of less than 10 ppm in all samples is designed to remove low abundance transcripts which may have variable expression in technical replicates. […] Changes from pretreatment levels were calculated based on log-transformed expression levels. […] Pairwise correlations were calculated to assess the association between individually derived exposure metrics and gene expression levels measured by HgU95A Affymetrix microarrays during the course of therapy. Correlations were run for two pharmacokinetic parameters—cumulative AUC and cumulative AUCsum, and for four measures of expression level—log2-transformed scaled frequency at 8 weeks, log2-transformed scaled frequency at 16 weeks, the difference between log2-transformed scaled frequency at 8 weeks and baseline, and the difference between log2-transformed scaled frequency at 16 weeks and baseline. Spearman's rank correlations, which are not sensitive to potential non-normal distributional properties of the pharmacokinetic parameters, were computed. The p-value for the hypothesis that the correlation was equal to 0 was calculated for each pairwise correlation. […] The results of permutation tests run for cumulative AUCsum vs expression change at 8 weeks and at 16 weeks are shown in Tables 5a and 5b. […] Table 6 also includes FARP1 (Accession No. A1701049). […] Accession numbers for the 19 transcripts are presented in Table 6, along with columns indicating the coefficient of variation observed in healthy individuals (% CV), the p-value observed in the Spearman correlation, the actual magnitude of the correlation, and the corresponding gene names.

[3] = clinical; conditions: human, whole blood
Experimental: In a randomized, double-blind, multicenter trial, once-weekly intravenous doses of 25-, 75-, or 250-mg of CCI-779 were administered to patients with advanced renal cancer that were either previously treated, or untreated and not appropriate candidates for high dose interlukin-2 therapy. Whole blood for CCI-779 and metabolite concentrations was drawn for population pharmacokinetic analysis, and Bayesian-predicted area under the concentration-time curves for parent drug (AUC), parent plus metabolite (AUCsum), and cumulative AUC and AUCsum were derived.
For CCI-779 clearance, factors for dose, attenuation of exposure with multiple-dose, and effect of body surface area were included.
The following examples were based on a randomized, double-blind, multicenter, outpatient phase 2 study of CCI-779 administered by 30 minute intravenous infusion (via an automatic dispensing pump) in patients with advanced RCC. Eligible patients were randomly assigned to treatment in a 1:1:1 ratio to receive 25 mg, 75 mg, or 250 mg of CCI-779 weekly until evidence of disease progression.
Full pharmacokinetic profiling was planned in a subset of patients, with remaining patients to provide sparse sampling.
The bioanalytical method for CCI-779 was performed using whole blood in a liquid chromatography/tandem mass spectrometry (LC/MS/MS) procedure with deuterated internal standard.
In order to characterize the pharmacokinetic profiles of patients providing sparse blood sampling, fully and sparsely sampled patient data were analyzed collectively using a population pharmacokinetic method and the NONMEM application (version 1.0, Revision 5.0 on Windows NT 4.0 computer with Pentium processor, NONMEM Project Group, University of California at San Francisco, Calif.). […] Data were therefore modeled separately and segregated by analyte into two separate data sets with dose, time/duration of administration, and demographic information. […] Construction of the NONMEM infile was performed using SAS (version 8.1) on a Sun Microsystems mainframe computer with Sun OS 5.8. […] In both cases, the model-derived value for AUC for a given patient and analyte were obtained from the quotient of CCI-779 Dose/Clearance (CL), in which CL was obtained from Bayesian estimation and the POSTHOC option of NONMEM.
During model building, an exponential error model was applied to the kinetic model.

[4] = CCI-779 final population model, whole blood, RCC patients
[5] = CCI-779 model, 1,000 bootstrap sample runs
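For Inter-Patient Variability % on CL in this document: population pharmacokinetic analysis in NONMEM of pooled full and sparse blood sampling from patients, exponential error on kinetic parameters, proportional residual error, bootstrap check over 1,000 resamples.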
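For Inter-Patient Variability % on V2 in this document: population pharmacokinetic analysis in NONMEM of pooled full and sparse blood sampling from patients, exponential error on kinetic parameters, proportional residual error, bootstrap check over 1,000 resamples.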
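For Inter-Patient Variability % on V3 in this document: population pharmacokinetic analysis in NONMEM of pooled full and sparse blood sampling from patients, exponential error on kinetic parameters, proportional residual error, bootstrap check over 1,000 resamples.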
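For Intersubject variability on CL (ω^21), final model parameter estimate in this document: population pharmacokinetic analysis in NONMEM of pooled full and sparse blood sampling from patients, exponential error on kinetic parameters, proportional residual error, bootstrap check over 1,000 resamples.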

For CO[C@H]1C[C@@H]2CC[C@@H](C)[C@@](O)(O2)C(=O)C(=O)N2CCCC[C@H]2C(=O)O[C@H]([C@H](C)C[C@@H]2CC[C@@H](OC(=O)C(C)(CO)CO)[C@H](OC)C2)CC(=O)[C@H](C)/C=C(\C)[C@@H](O)[C@@H](OC)C(=O)[C@H](C)C[C@H](C)/C=C/C=C/C=C/1C [CCI-779], the half-life [1] was about 14 h, the clearance ([1]; 25 mg) was about 333 mL/min and the clearance ([1]; 250 mg) was about 1670 mL/min. For the same compound, the “Correlation with AUCsum at 16 weeks: KIAA0857” value ([2]; AB020664, P-value 0.0006) was 0.69, the “Correlation with AUCsum at 8 weeks: KIAA0857” value ([2]; AB020664, P-value 0.9627) was 0.01 and the “Correlation with AUCsum at 16 weeks: B4GALT3” value ([2]; AF038661, P-value 0.0002) was 0.73. The “Correlation with AUCsum at 8 weeks: B4GALT3” value ([2]; AF038661, P-value 0.2589) was 0.21, the “Correlation with AUCsum at 16 weeks: SLC25A11” value ([2]; AF070548, P-value 0.0006) was 0.69 and the “Correlation with AUCsum at 8 weeks: SLC25A11” value ([2]; AF070548, P-value 0.0881) was 0.32. The “Correlation with AUCsum at 16 weeks: IKBKG” value ([2]; AF074382, P-value 0.0007) was 0.68, the “Correlation with AUCsum at 8 weeks: IKBKG” value ([2]; AF074382, P-value 0.1013) was 0.30 and the “Correlation with AUCsum at 16 weeks: UNK_AI147237” value ([2]; AI147237, P-value 0.0004) was 0.70. The “Correlation with AUCsum at 8 weeks: UNK_AI147237” value ([2]; AI147237, P-value 0.0877) was 0.32, the “Correlation with AUCsum at 16 weeks: COX6A1” value ([2]; AI540925, P-value 0.0002) was −0.73 and the “Correlation with AUCsum at 8 weeks: COX6A1” value ([2]; AI540925, P-value 0.0050) was −0.50. For the same compound, the “Correlation with AUCsum at 16 weeks: FARP1” value ([2]; AI701049, P-value 0.001) was 0.66, the “Correlation with AUCsum at 8 weeks: FARP1” value ([2]; AI701049, P-value 0.0089) was 0.47 and the “Correlation with AUCsum at 16 weeks: U2AF65” value ([2]; AI762438, P-value 0.0001) was 0.74. For the same compound, the “Correlation with AUCsum at 8 weeks: U2AF65” value ([2]; AI762438, P-value 0.2209) was 0.23, the “Correlation with AUCsum at 16 weeks: UNK_AL022318” value ([2]; AL022318, P-value 0.0005) was 0.69 and the “Correlation with AUCsum at 8 weeks: UNK_AL022318” value ([2]; AL022318, P-value 0.2617) was 0.21. For the same compound, the “Correlation with AUCsum at 16 weeks: UNK_AL046394” value ([2]; AL046394, P-value 0.0002) was 0.72, the “Correlation with AUCsum at 8 weeks: UNK_AL046394” value ([2]; AL046394, P-value 0.0999) was 0.31 and the “Correlation with AUCsum at 16 weeks: UNK_H98552” value ([2]; H98552, P-value 0.0003) was 0.71. The “Correlation with AUCsum at 8 weeks: UNK_H98552” value ([2]; H98552, P-value 0.0308) was 0.39, the “Correlation with AUCsum at 16 weeks: DPEP1” value ([2]; J05257, P-value 0.0005) was 0.69 and the “Correlation with AUCsum at 8 weeks: DPEP1” value ([2]; J05257, P-value 0.0348) was 0.39. The “Correlation with AUCsum at 16 weeks: CYP11A” value ([2]; M14565, P-value 0.0006) was 0.69, the “Correlation with AUCsum at 8 weeks: CYP11A” value ([2]; M14565, P-value 0.0838) was 0.32 and the “Correlation with AUCsum at 16 weeks: TNNT1” value ([2]; M19309, P-value 0.0004) was 0.70. For the same compound, the “Correlation with AUCsum at 8 weeks: TNNT1” value ([2]; M19309, P-value 0.2684) was 0.21, the “Correlation with AUCsum at 16 weeks: PML” value ([2]; M79463, P-value 0.0007) was 0.68 and the “Correlation with AUCsum at 8 weeks: PML” value ([2]; M79463, P-value 0.0378) was 0.38. The “Correlation with AUCsum at 16 weeks: SLC19A1” value ([2]; U17566, P-value 0.0007) was 0.68, the “Correlation with AUCsum at 8 weeks: SLC19A1” value ([2]; U17566, P-value 0.1220) was 0.29 and the “Correlation with AUCsum at 16 weeks: USP11” value ([2]; U44839, P-value 0.0001) was 0.76. For the same compound, the “Correlation with AUCsum at 8 weeks: USP11” value ([2]; U44839, P-value 0.3998) was 0.16, the “Correlation with AUCsum at 16 weeks: ACTN4” value ([2]; U48734, P-value 0.0003) was 0.71 and the “Correlation with AUCsum at 8 weeks: ACTN4” value ([2]; U48734, P-value 0.0721) was 0.33. The “Correlation with AUCsum at 16 weeks: FOXM1” value ([2]; U90917, P-value 0.0001) was 0.75, the “Correlation with AUCsum at 8 weeks: FOXM1” value ([2]; U90917, P-value 0.206) was 0.24 and the “Correlation with AUCsum at 16 weeks: SULT2B1” value ([2]; U92315, P-value 0.0005) was 0.69. For the same compound, the “Correlation with AUCsum at 8 weeks: SULT2B1” value ([2]; U92315, P-value 0.1066) was 0.30, the “Inter-Patient Variability % on CL” value (CCI-779 final population model) was 23.7% and the “Inter-Patient Variability % on V2” value (CCI-779 final population model) was 44.1%. The “Inter-Patient Variability % on V3” value (CCI-779 final population model) was 129%, the “Intersubject variability on CL (ω^21), final model parameter estimate” value (CCI-779 final population model) was 0.056 and the “Intersubject variability on V2 (ω^22), final model parameter estimate” value (CCI-779 final population model) was 0.194. The “Intersubject variability on V3 (ω^23), final model parameter estimate” value (CCI-779 final population model) was 1.67, the “Proportional error (ε^2), final model parameter estimate” value (CCI-779 final population model) was 0.157 and the “V1 (θ2), parameter estimate” value [4] was 37.6 L. The “V2 (θ4), parameter estimate” value [4] was 271 L, the “V3 (θ6), parameter estimate” value [4] was 323 L and the “Q2 (θ3), parameter estimate” value (CCI-779 final population model, TVQ2=6.48*DOSE^0.551) was 6.48 L/h. The “Q3 (θ5), parameter estimate” value (CCI-779 final population model, TVQ3=0.258*DOSE^0.551) was 0.258 L/h, the “INTR, inter-period variability on CL (θ8), parameter estimate” value (CCI-779 final population model, factor for multiple doses (DNUM=1)) was 0.103 and the “Inter-period variability on CL (θ8), bootstrap sample median” value [5] was 0.110. The “Intersubject variability on CL (ω^21), bootstrap sample median” value [5] was 0.215, the “Intersubject variability on V2 (ω^22), bootstrap sample median” value [5] was 0.414 and the “Intersubject variability on V3 (ω^23), bootstrap sample median” value [5] was 1.08. The “Proportional error (ε^2), bootstrap sample median” value [5] was 0.383, the “Q2 (θ3), bootstrap sample median” value [5] was 6.46 L/h and the “Q3 (θ5), bootstrap sample median” value [5] was 0.267 L/h. The “V1 (θ2), bootstrap sample median” value [5] was 38.3 L, the “V2 (θ4), bootstrap sample median” value [5] was 275 L and the “V3 (θ6), bootstrap sample median” value [5] was 339 L. The “increase of clearance with BSA” value (for a given dose, patients with BSA values that range from 1.5 to 2 m^2) was “approximately 45%”, the clearance ([3]; intravenous) was 24.2 mL/min and the clearance ([3]; iv) was 23.2 mL/min.
